These are literature values, as cited in patent publication US20060160700A1, “Nadh-dependent cytochrome b5 reductase as target for herbicides” (Basf Aktiengesellschaft, priority 2002, published 2006).

Data set [1] deals with T1, NADH-dependent cytochrome b5 reductase from human erthyrocytes (Homo sapiens, UniProt P00387).
T1 construct: host or cells: human erythrocytes
T1 sequence (P00387 24-301 limits assumed): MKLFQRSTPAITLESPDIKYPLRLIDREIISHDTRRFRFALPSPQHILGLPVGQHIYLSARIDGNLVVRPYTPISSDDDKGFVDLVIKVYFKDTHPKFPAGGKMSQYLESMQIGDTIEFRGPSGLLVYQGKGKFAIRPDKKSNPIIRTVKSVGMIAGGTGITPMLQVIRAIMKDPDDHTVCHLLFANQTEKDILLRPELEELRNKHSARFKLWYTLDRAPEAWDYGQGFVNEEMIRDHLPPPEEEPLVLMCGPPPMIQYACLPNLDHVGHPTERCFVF
The note with it: enzyme from human erythrocytes; Palmieri et al. 1990.

The test system of data set [2] is NADH-dependent cytochrome b5 reductase from various organisms. Conditions: enzyme from various organisms; Golf et al. 1985, Tamura et al. 1983.
The target of data set [3] is T2, NADH-dependent cytochrome b5 reductase from rat liver microsomes (Rattus norvegicus, UniProt P20070).
T2 construct: host or cells: rat liver microsomes
T2 sequence (P20070 1-301): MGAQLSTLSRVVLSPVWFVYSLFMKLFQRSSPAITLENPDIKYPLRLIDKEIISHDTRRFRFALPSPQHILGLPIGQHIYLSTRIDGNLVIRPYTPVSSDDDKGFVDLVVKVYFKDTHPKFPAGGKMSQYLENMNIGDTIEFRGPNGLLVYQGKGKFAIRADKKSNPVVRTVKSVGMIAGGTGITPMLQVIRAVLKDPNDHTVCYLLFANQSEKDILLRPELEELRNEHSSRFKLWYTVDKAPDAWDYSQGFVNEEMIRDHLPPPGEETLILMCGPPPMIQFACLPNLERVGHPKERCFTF
Conditions: at a concentration of 0.5 mM, Golf et al. 1985.

For `O=P(O)(O)O[C@H]1[C@H](OP(=O)(O)O)[C@@H](OP(=O)(O)O)[C@H](OP(=O)(O)O)[C@@H](OP(=O)(O)O)[C@H]1OP(=O)(O)O` [inositol hexaphosphate], the “concentrations that inhibit the NADH-dependent cytochrome b5 reductase” value in data set [1] was “millimolar range”.
Consider `CCN(CC)CCCC(C)Nc1c2ccc(Cl)cc2nc2ccc(OC)cc12` (stereo not drawn) [mepacrin], for which, in data set [2], the “inhibition of NADH-dependent cytochrome b5 reductase (result in words)” value is recorded as “capable of inhibiting”.
`O=c1oc2ccccc2c(O)c1Cc1c(O)c2ccccc2oc1=O` [dicoumarol]: the “inhibition of NADH-dependent cytochrome b5 reductase (result in words)” value in data set [2] is reported as “capable of inhibiting”.
Regarding `CCC1(CCC(C)C)C(=O)NC(=O)NC1=O` [amytal], the “inhibition of NADH-dependent cytochrome b5 reductase (result in words)” value in data set [2] is reported as “capable of inhibiting”.
Turning to `CCN1C(=O)C=CC1=O` [N-ethylmaleimide], in data set [2], the “inhibition of NADH-dependent cytochrome b5 reductase (result in words)” value is “capable of inhibiting”.
With `O=C(CC(=O)C(F)(F)F)c1cccs1` [thenoyltrifluoroacetone], the “inhibition of NADH-dependent cytochrome b5 reductase” value in data set [3] is given as 50%.
